The text below walks through data of publication PMC6701825, “Antiproliferative and Antimigratory Effects of a Novel YAP–TEAD Interaction Inhibitor Identified Using in Silico Molecular Docking” (Journal of Medicinal Chemistry, 2019).

The structures appear in SMILES notation. Read-outs that look alike come from different tables or passages of the source.

Data set [1] concerns TEAD-independent minimal TNT1 gene promoter. The data set can be described thus: Minimal TNT1 promoter-luciferase (minP-LUC) reporter in HeLa cells. In kind it is cell-based, human. The settings on record: 6 h. From the text: Activation of TEAD transcription factors in response to YAP binding induces the expression of many genes that encode proteins known to be involved in promoting cell proliferation and migration (see Supplement Figure 14). The best characterized TEAD target genes associated with the promotion of cell proliferation and migration are CCN1 and CTGF.[39],[59],[60] […] We therefore tested whether CPD3 inhibited the promoter activity of known TEAD target genes, CCN1 and CTGF, in the HeLa transformed cell line and primary rat VSMCs (RaVSMCs). Cells were transfected with plasmids expressing bioluminescent firefly luciferase reporter genes under the control of either the CCN1 or CTGF promoter regions. […] As both CCN1 and CTGF are classical TEAD target genes, this is consistent with the inhibition of TEAD activity by CPD3.
TNT1-minP reporter containing the Troponin-T minimal promoter was generated by digesting 8xGTIIC-luciferase plasmid (Addgene #34615) with Kpn1 and BglII to remove the TEAD elements, followed by blunt end re-ligation. A 2.177 kb fragment of the human CCN1 promoter containing two proximal TEAD elements (Hg19;chr1:86044316–chr1:86046493) was described previously[39] and cloned into pGL4-luciferase (Promega). […]

Data set [2] relates to TEAD target genes (CCN1, CTGF, PAI1, THBS, MAYDM, MYOC). The data set can be described thus: qRT-PCR of TEAD target gene mRNA in RaVSMCs. In kind it is cell-based, rat. On the procedure:
(§1) Figure 9 Compound 3.1 inhibits TEAD target gene expression, cell proliferation, and cell migration in RaVSMCs. RaVSMCs stably transduced with TEAD-NLUC (A) or transiently transfected with CCN1-LUC or CTGF-LUC were treated with the indicated concentrations of compound 3.1 for 6 hr. Cell conditioned media (A) or cell lysates (B−C) were assayed for nanoluciferase or fire-fly luciferase activity, respectively. VSMC were treated with 60 μM compound 3.1 for 6 h (n = 3). Total RNA was analyzed for mRNA levels of TEAD-target genes (D) or constitutive housekeeping genes (E) by qRT-PCR. VSMC were treated with indicated concentrations of compound 3.1 for 16 hr (n = 4). Total cell lysates were analyzed for CCN1 protein expression by Western blotting (F). RaVSMCs (G) or HuVSMC (H) were treated with indicated concentrations of compound 3.1 for 18 h followed by labeling in 10 μM EdU for a further 6 h (n = 4). RaVSMCs (I) or HuVSMC (J) were treated with indicated concentrations of compound 3.1 and cell migration quantified using IncuCyte real time migration assay (n = 4).
Quantitative reverse transcription (RT)-PCR: quantification of mRNA was performed by RT-qPCR, as described previously.[39] Total RNA was extracted using Ambion PureLink kits (Thermo Fisher) and reverse-transcribed using QuantiTect RT kit (Qiagen) and random primers. Quantitative PCR was performed using Roche SYBR Green using a Qiagen Roto-GeneRotor-Gene Q PCR machine (20 seconds@95 °C; 20 seconds @62 °C; 20 seconds@72 °C). Data were normalized to nonstimulated controls. Primer sequences are described in Supplement Table 2.
Supplement Figure 11: Dose repose analysis of CPD3.1 on CCN1, CTGF and THBS
RaVSMC were treated with the indicated doses of CPD3.1 and total RNA analysed for
levels of steady state mRNA of CCN1, CTGF and THBS mRNA using qRT-PCR (n=4).
(§2) (1 picture or pasted object on this page, not shown here)

The subject of data set [3] is housekeeping genes PGK1, TBP, GAPDH, 36B4. The data set can be described thus: qRT-PCR of TEAD-independent housekeeping gene mRNA in RaVSMCs. The data set is classed as cell-based, rat. Here is the method:
as §1, with “RaVSMCs (G) or HuVSMC (H) were treated with indicated concentrations of compound 3.1 for 18 h followed by labeling in 10 μM EdU for a further 6 h (n = 4).” left out
Quantitative reverse transcription (RT)-PCR: quantification of mRNA was performed by RT-qPCR, as described previously.[39] Total RNA was extracted using Ambion PureLink kits (Thermo Fisher) and reverse-transcribed using QuantiTect RT kit (Qiagen) and random primers. Quantitative PCR was performed using Roche SYBR Green using a Qiagen Roto-GeneRotor-Gene Q PCR machine (20 seconds@95 °C; 20 seconds @62 °C; 20 seconds@72 °C). […]

The subject of data set [4] is HeLa cells. Kind of data set: EdU proliferation assay in HeLa cells. In kind it is cell-based, human. To be noted: for cell proliferation (EdU incorporation): 18 h then 6 h 10 μM EdU. Here is the method: (§3) Cell proliferation was measured using the Click-iT EdU 488 assay (Sigma-Aldrich). Briefly, the cells were treated with indicated concentrations of compounds for 24 h with the last 4 h being in the presence of 10 μM EdU. The cells were fixed in 4% formaldehyde and stained for EdU incorporation, following the kit’s standard protocol. The cells were counterstained with Hoechst 33342 nucleic acid for 20 min. Fluorescent images of at least three fields of view per well were counted using ImageJ software. Real-time analysis of cell migration was performed using an IncuCyte ZOOM live cell imaging system (Essen BioScience) according to the manufacturer’s instructions. Briefly, the cells were seeded (1.2 × 10^4 cells/well for HeLa cells, 1.5 × 10^4 cells/well for RaVSMCs, and 1 × 10^4 cells/well) into ImageLock 96-well plates. After 36 h, the cells were pretreated overnight with indicated concentrations of compounds. The wells were scratched using a WoundMaker tool, and the media were replaced containing test compounds. Phase contrast images of cell migration into the wounded area were acquired hourly for 24 h. Relative wound confluence was calculated using the Cell Migration Image analysis module of the IncuCyte ZOOM software.

For data set [5], the system named is HeLa cells. The data set can be described thus: Real-time IncuCyte scratch wound migration assay in HeLa cells. In kind it is cell-based, human. On the procedure:
as §3

Data set [6] has as its system HeLa cells. Kind of data set: Live/dead cell viability assay (ethidium homodimer-1) in HeLa cells. In kind it is cell-based. On the procedure:
Cell viability was quantified using the live/dead viability/cytotoxicity assay standard protocol (Invitrogen). Maximum cell death was quantified by incubating cells for 10 min with 0.1% Triton-X, followed by incubation with 0.4 μM ethidium homodimer-1 for an additional 10 min. Fluorescence was measured using a GloMax Discover multiplate reader (Promega).
Supplement Figure 3: Effect of shortlisted compounds on cell viability
HeLa cells transduced with TEAD-NLUC reporter were treated with indicated compounds at 100 µM for 6 hours (n=3). Cell viability was quantified by staining with 0.4 µM ethidium homodimer-1 and ethidium homodimer-1 uptake quantified by measuring fluorescence at 645 nm using a Glomax Discover plate reader.
as §2
Supplement Figure 6: Effect of CPD3, CPD3.1, CPD3.2 and CPD 3.3 on cell viability HeLa cells transduced with TEAD-NLUC reporter were treated with indicated concentrations of CPD3, CPD3.1, CPD3.2 and CPD 3.3 for 6 hours (n=3). Cell viability was quantified by staining with 0.4 µM ethidium homodimer-1 and ethidium homodimer-1 uptake quantified by measuring fluorescence at 645 nm using a Glomax Discover plate

Setting [7] is: RaVSMC dose-response, Supplement Figure 11.

In the case of `Cc1ccc2c(c1)c1c3n2CCN(CC(O)CN2CCN(C(=O)c4ccco4)CC2)C3CCC1` (centres unmarked) [CPD3], the “activity of TEAD-independent minimal TNT1 promoter (minP-LUC)” value in data set [1] is “not inhibited by any concentration”. Also, in data set [2] (RaVSMCs, Supplement Figure 4), the “steady-state mRNA levels of endogenous CCN1 and CTGF genes” value is given as “significantly inhibited”. The “steady-state mRNA level of housekeeping gene 36B4” value in data set [3] (RaVSMCs, Supplement Figure 4) is on record as “but not the TEAD-independent housekeeping gene 36B4”. Also, the “cell proliferation (EdU incorporation)” value in data set [4] is reported as “dose-dependently inhibited cell proliferation”. The “cell migration (scratch wound)” value in data set [5] is reported as “dose-dependently inhibited”. Besides, the “effect on cell viability” value in data set [6] (100 µM, 6 hours, HeLa TEAD-NLUC cells) is “without significantly affecting cell viability”; in data set [6] (indicated concentrations, 6 hours, HeLa (Supplement Figure 6)), “did not affect cell viability”.

As to `Cc1ccc2c(c1)c1c3n2CCNC3CCC1` (centres unmarked) [CPD3.1], the “activity of TEAD-independent minimal TNT1 promoter (minP-LUC)” value in data set [1] was “without affecting expression”. In addition, in data set [2] (setting [7]), the “concentration giving inhibition of CCN1 mRNA” value was 20 µM, the “concentration giving inhibition of CTGF mRNA” value stood at 40 µM and the “concentration giving inhibition of THBS mRNA” value was determined as 10 µM. The “steady-state mRNA levels of TEAD target genes (CCN1, CTGF, PAI1, THBS, MAYDM, MYOC)” value in data set [2] (VSMC, 60 μM, 6 h) is reported as “significantly inhibited”. For the same compound, the “steady-state mRNA levels of housekeeping genes PGK1, TBP, GAPDH, 36B4” value in data set [3] (VSMC, 60 μM, 6 h) is recorded as “unaffected”. In data set [4], the “doses at which EdU incorporation was significantly inhibited” value is recorded as “above 40 μM” and the “cell proliferation (EdU incorporation)” value is “dose-dependently inhibited HeLa cell proliferation”. In data set [5], the “cell migration (scratch wound)” value is “significantly inhibited HeLa cell migration at 40, 60, and 80 μM”. Further, the “effect on cell viability” value in data set [6] is “without affecting cell viability”.
